# Legend:
# [1] = TR-FRET retinol binding assay of mRBP4 proteins; conditions: retinol binding affinities of mRBP4 proteins
# Protocol: The binding affinities of mRBP4 proteins were determined by a TR-FRET retinol binding assay.
# WT and pNO2Phe mRBP4 mutant proteins were labeled with biotin using the Sulfo-NHS-Biotin kit (Pierce, Rockford, Ill.) according to manufacturer instructions. For determination of retinol binding activity, 10 nM biotin-labeled RBP4 was mixed with 1 nM Streptavidin-Europium chelate (LANCE® Eu-W8044 Streptavidin, Perkin Elmer, Foster City, Calif.). Increasing concentrations of Cy5-labeled retinol were added to the reaction and retinol binding was assessed by homogeneous time-resolved fluorescence resonance energy transfer (TR-FRET).
# WT mRBP4 = biological target: T1, WT mRBP4 (Mus musculus, UniProt Q00724); assay: Immunization of mice with mRBP4 variants (RIMMS), serum IgG titers by ELISA; assay type: in vivo; conditions: Bcl2 mice (FIG. 19), C57BL/6 mice (FIG. 26), RIMMS protocol
# T1 construct: The cDNA encoding murine RBP4 (aa 19-201); made in house; host or cells: E. coli BL21(DE3)
# Protocol: 30 μl of 0.5 μg/ml protein was used to coat the wells of Maxisorp 384-well plates (Nunc, Rochester, N.Y.) overnight at 4° C. After washing with PBS+0.05% Tween 20 (PBST), the coated plates were blocked with 80 μl of 1% BSA in PBS, and washed again with PBST. The plates were sequentially incubated with 20 μl of primary antibody or serum diluted in 1% BSA in PBS, 20 μl of HRP-conjugated goat anti-mouse IgG or anti-mouse IgM (Jackson ImmunoResearch Laboratories, West Grove, Pa.), and 20 μl of TMB substrate (KPL, Gaithersburg, Md.), and read at an absorbance of 650 nm. Between incubations, the plates were washed at least six times with PBST.
# Before measurement, serum samples were diluted 1:1,000 with 1% BSA in PBS buffer.
substance,measurement,setting,value
"WT mRBP4: wild-type murine retinol binding protein 4, N-terminal His6-tagged, expressed in E. coli",Kd,[1],0.171 µM
same,serum IgG titers against WT mRBP4,WT mRBP4,insignificant serum IgG titers
